Read-outs that look alike come from different tables or passages of the source.
Legend:
[1] = test system: HCV replicon; assay: HCV replicon firefly luciferase assay; type: cell-based, hepatitis C virus (HCV) genotype 1b; details: Hepatitis C virus; HuH-7; 48 hr; tested up to 25 μM
Protocol: (§1) A549, BHK-21 and Huh7 cells bearing stable DENV2 sub-genomic replicon or transiently electroporated DENV2-NGC replicon or infectious virus cDNAs were seeded into 384-well microplate (3,000 cells per well). After over-night incubation at 37°C with 5% CO2, the cells were treated with 2-fold serially diluted compounds, starting from 20 or 50 μM. At 48 hr of post-incubation, renilla luciferase activities were measured with the ViviRen live-cell substrate (Promega, USA) according to the manufacturer’s protocol. CellTiter-Glo reagent (Promega, USA) was then added to determine cytotoxic effects of compounds. For the HCV replicon assay, Huh-7.5 cells harboring the HCV replicon were seeded into a 96-well microplate (20,000 cells per well). At 48 hr after compound treatment, cells were assayed for firefly luciferase activity by using a Bright-Glo luciferase assay (Promega, USA). NITD-008, a nucleoside inhibitor of DENV and HCV was added as a control.
(§2) 1 containing 2 % FBS, 1mM L-glutamine and 1 % penicillin-streptom ycin and incubated over-
At 24 h post-seeding, cells were inf ected with DENV1-4 at […]
(§3) 8 DENV envelope protein ) and DRAQ5 (for nucl ear DNA) . Quantifications of DENV
9 envelope protein were determined using the Opera high content imaging s ystem and anal ysis […]
(§4) 17 µM concentrations. At 48 hr of post-incubation, r enilla luciferas e activities were measured […]

[2] = target: T1, DENV2 FL NS5 L511V (Dengue virus type 2, UniProt P14340, L3003V); type: binding; details: 50 µM compound; for Protein melting temperature, Tm, DENV2 FL NS5 L511V: DMSO 35.5
T1 construct: Recombinant DENV2 (A, C) and DENV4 (B, D) FL NS5 proteins bearing single or double amino acid changes; made in house

[3] = test system: DENV4, strain MY01-22713; details: A549; 48 hr; read-out: DENV4 HCI, EC50 (converted); cited from earlier work
[4] = in vitro; type: cell-based
Protocol: as §1

[5] = test system: DENV2-NGC virus L512V/E802D; type: cell-based; details: A549, MOI = 0.2; 48 hr; plaque assay
[6] = test system: Compound 29-resistant DENV2-NGC EGFP-replicon cells; assay: Compound-resistant DENV2-NGC EGFP-replicon cells; type: cell-based; details: Dengue virus, DENV2, 48 h, read-out: EC50, Compound 29-resistant DENV2-NGC EGFP-replicon cells
[7] = test system: DENV2-NGC Ren-LUC Replicon in A549; assay: Stable A549 DENV2-NGC renilla luciferase replicon assay; type: cell-based; details: Dengue virus, 48 hr
Protocol: as §1, §2
At 24 h post-seeding, cells were inf ected with DENV1-4 at
3 multiplicity of infection [MOI] of 0.3-1 (DENV1, strain MY97- 10245, MOI = 0.5; DENV2,
5 MY01-22713; MOI = 0.5) and treated immediatel y with 10- point, 3-fold serially diluted
6 compounds (at final 0.5% DMSO concent ration; 4). At 48 h post-infection , cells wer e fix ed
as §3
9 envelope protein were determined using the Opera high content imaging s ystem and anal ysis
10 software (Perkin Elmer, USA). Calculation of EC50 values were perfo rmed using Helios
11 software p ackage (Nov ar tis, Basel).
13 Compound testing in DENV2 and HCV sub -genomic replicon assays. A549, BHK -21 and
14 Huh7 DENV2 sub- geno mic replicon cells were seed ed at a d ensit y o f 3,000 cells per w ell
15 in a 384-well microplate. After incubation at 37 °C with 5 % CO2 overnight, the cells were […]
as §4

[8] = test system: DENV2-NGC Ren-LUC Replicon in BHK21; assay: Stable BHK21 DENV2-NGC renilla luciferase replicon assay; type: cell-based; details: Dengue virus, DENV2, BHK-21; 48 hr
[9] = test system: clinical DENV2 isolate MY97-10340; details: A549, 48 hr, read-out: DENV2 HCI, EC50 (converted); cited from earlier work
[10] = test system: DENV2 replicon cells; assay: DENV2 replicon cells from HuH-7, BHK-21 and A549 backgrounds, range; type: cell-based; details: Dengue virus, range across cell backgrounds
[11] = target: T2, DENV2 FL NS5 E802D (Dengue virus type 2, UniProt P14340, E3293D); type: binding; details: 50 µM compound; for Protein melting temperature, Tm, DENV2 FL NS5 E802D: DMSO 36
T2 construct: Recombinant DENV2 (A, C) and DENV4 (B, D) FL NS5 proteins bearing single or double amino acid changes; made in house

[12] = test system: DENV2-NGC Ren-LUC Replicon in HuH-7; assay: Stable HuH-7 DENV2-NGC renilla luciferase replicon assay; type: cell-based; details: read-out: HuH-7 DENV Replicon, DENV2, EC50
[13] = target: T3, DENV4 FL NS5 L512V/Q802N (Dengue virus type 4, UniProt P09866, L2999V/Q3290N); type: binding; details: 50 µM compound; for Protein melting temperature, Tm, DENV4 FL NS5 L512V/Q802N: DMSO 36
T3 construct: made in house

[14] = target: T4, DENV4 FL NS5 L512V (Dengue virus type 4, UniProt P09866, L2999V); type: binding; details: 50 µM compound; for Protein melting temperature, Tm, DENV4 FL NS5 L512V: DMSO 36.5
T4 construct: Recombinant DENV2 (A, C) and DENV4 (B, D) FL NS5 proteins bearing single or double amino acid changes; made in house

[15] = test system: DENV2-NGC replicon Wild Type; assay: Transient WT DENV2-NGC replicon in BHK-21 cells; details: Dengue virus, DENV2, BHK-21, 48 h, read-out: EC50, DENV2-NGC Replicon, Wild Type
Protocol: 4 Compound testing in cells transiently expressing DENV and WNV replicon. R enilla
5 luciferas e sub-genomic replicon of DENV2 (strai n New Guinea C) or WN V (New York
6 strain 3356) cloned into the pACYC plasmid, was in vitro transcribed using a T7 mMessage
7 mMachine kit (Ambion, Austin, TX) after linearization with ClaI, as descri bed previousl y
8 [5]. A549 cells were electroporated with 10 μg of replicon RNA using a GenePulser Xcell
9 system (Bio-Rad, H ercul es, CA) with 3 pulses, at 450 V, 25 µF, at 5- 10 sec intervals.
10 Transfected cells wer e seeded into a 96-w ell plate at 1.5 × 10^4 cells per well, followed b y
11 treatment with the compound or the dimethyl sulfoxide (DMSO) control and incubation at
12 37°C in 5 % CO2. At various time points post-transfection, cells were w ash ed once with
13 phosphate-buffered saline (PBS) and l ysed in 20 μl 1× l ysis buffer (Promega, USA) and
14 assa yed fo r luciferase si gnals with a Clarit y luminescence microplate reader (BioT ek, USA)
15 using the renilla luciferase assa y s ystem (Promega, USA). CellTiter -Glo reagent was added to
16 the l ysates to determine t he c ytotoxicit y effects of compounds.Duplicate w ells were seeded

[16] = hamster, 2 days, read-out: CC50, BHK-21
[17] = human, HuH-7 (DENV2 replicon cells), 48 hr, ATP levels
[18] = human, 2 days, read-out: CC50, A549
[19] = Dengue virus, DENV2, Huh-7, 48 h

T3 sequence (P09866 2488-3387 L2999V/Q3290N): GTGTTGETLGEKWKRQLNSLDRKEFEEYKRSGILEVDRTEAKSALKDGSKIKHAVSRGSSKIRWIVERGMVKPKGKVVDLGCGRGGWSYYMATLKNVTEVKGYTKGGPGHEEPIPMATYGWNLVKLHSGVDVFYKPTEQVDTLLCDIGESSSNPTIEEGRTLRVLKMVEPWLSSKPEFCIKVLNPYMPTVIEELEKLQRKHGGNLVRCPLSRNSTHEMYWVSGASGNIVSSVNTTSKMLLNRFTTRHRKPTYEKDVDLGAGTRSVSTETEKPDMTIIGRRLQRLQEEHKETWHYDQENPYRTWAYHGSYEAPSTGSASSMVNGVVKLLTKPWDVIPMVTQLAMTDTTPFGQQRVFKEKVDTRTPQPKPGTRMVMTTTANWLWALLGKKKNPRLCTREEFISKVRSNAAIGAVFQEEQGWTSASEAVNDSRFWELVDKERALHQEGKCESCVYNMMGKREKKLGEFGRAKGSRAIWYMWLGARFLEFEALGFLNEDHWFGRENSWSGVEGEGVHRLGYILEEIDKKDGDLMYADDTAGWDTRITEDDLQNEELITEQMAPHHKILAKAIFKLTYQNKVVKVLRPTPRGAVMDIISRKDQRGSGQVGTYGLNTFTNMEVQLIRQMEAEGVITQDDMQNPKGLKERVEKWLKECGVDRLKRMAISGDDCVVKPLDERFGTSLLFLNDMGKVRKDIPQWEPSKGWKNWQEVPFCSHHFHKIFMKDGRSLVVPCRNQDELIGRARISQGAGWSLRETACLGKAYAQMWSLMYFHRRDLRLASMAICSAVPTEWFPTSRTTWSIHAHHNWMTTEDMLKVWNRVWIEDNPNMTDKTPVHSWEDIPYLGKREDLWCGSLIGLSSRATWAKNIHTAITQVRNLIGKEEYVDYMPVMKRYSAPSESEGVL
T4 sequence (P09866 2488-3387 L2999V): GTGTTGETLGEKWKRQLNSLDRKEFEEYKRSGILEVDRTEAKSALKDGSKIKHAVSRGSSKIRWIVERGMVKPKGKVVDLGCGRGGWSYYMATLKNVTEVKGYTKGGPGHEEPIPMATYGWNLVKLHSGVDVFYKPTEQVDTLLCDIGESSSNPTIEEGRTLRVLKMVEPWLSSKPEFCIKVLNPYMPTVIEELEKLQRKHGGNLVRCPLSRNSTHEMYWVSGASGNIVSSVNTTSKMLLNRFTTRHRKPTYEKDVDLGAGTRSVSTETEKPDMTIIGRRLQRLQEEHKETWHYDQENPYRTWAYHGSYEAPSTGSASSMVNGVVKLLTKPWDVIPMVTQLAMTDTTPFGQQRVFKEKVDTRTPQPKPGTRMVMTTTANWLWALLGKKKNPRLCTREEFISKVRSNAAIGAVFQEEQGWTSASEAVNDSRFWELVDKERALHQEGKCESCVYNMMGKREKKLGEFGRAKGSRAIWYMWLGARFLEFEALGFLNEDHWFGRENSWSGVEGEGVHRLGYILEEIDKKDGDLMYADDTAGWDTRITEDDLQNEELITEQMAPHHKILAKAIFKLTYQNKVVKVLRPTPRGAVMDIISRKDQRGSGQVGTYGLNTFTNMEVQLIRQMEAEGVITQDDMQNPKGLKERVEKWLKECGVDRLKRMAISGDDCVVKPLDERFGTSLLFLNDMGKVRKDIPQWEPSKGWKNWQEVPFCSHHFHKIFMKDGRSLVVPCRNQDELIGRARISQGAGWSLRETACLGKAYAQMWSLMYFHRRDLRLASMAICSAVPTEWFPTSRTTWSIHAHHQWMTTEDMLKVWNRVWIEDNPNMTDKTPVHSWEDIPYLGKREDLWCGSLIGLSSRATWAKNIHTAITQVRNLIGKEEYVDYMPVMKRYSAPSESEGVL

## COc1cc(OC)c(-c2ccc(C#CCO)s2)cc1C(=O)NS(=O)(=O)c1cccc2cccnc12 [Compound 29]
[1]
  EC50: > 25 µM
[2]
  Tm change compared to DMSO control, DENV2 FL NS5 L511V: 1.0 °C
  Protein melting temperature, Tm, DENV2 FL NS5 L511V: 36.5 °C
[3]
  EC50: 10.2 µM
[4]; [16]
  CC50: > 50 µM
[4]; [17]
  CC50: > 50 µM
[4]; [18]
  CC50: > 50 µM
[5]
  EC50: 7.01 µM
[6]
  EC50: 34 µM
[7]
  EC50: 2.8 µM
[8]
  EC50: 4.6 µM
[9]
  EC50: 14.1 µM
[10]
  EC50: 1 to 5 µM
[11]
  Tm change compared to DMSO control, DENV2 FL NS5 E802D: 2.0 °C
  Protein melting temperature, Tm, DENV2 FL NS5 E802D: 38 °C
[12]; 48 hr
  EC50: 1.9 ± 0.2 µM
[12]; [19]
  EC50: ~2 µM
[13]
  Tm change compared to DMSO control, DENV4 FL NS5 L512V/Q802N: -0.5 °C
  Protein melting temperature, Tm, DENV4 FL NS5 L512V/Q802N: 35.5 °C
[14]
  Tm change compared to DMSO control, DENV4 FL NS5 L512V: 1.5 °C
  Protein melting temperature, Tm, DENV4 FL NS5 L512V: 38 °C
[15]
  EC50: 6.7 µM

## COc1cccc(S(=O)(=O)NC(=O)c2cc(-c3ccc(C#CCO)s3)c(OC)cc2C)c1 [Compound 26i]
[4]; [17]
  CC50: > 50 µM
[4]; [18]
  CC50: > 50 µM
[7]
  EC50: 15.4 µM
[10]
  EC50: 12 to 15 µM
[12]; [19]
  EC50: 12.1 µM

## COc1cccc(S(=O)(=O)NC(=O)c2cc(-c3ccc(C#CCO)s3)c(OC)cc2OC)c1 [Compound 27]
[1]
  EC50: > 25 µM
[2]
  Tm change compared to DMSO control, DENV2 FL NS5 L511V: 0 °C
  Protein melting temperature, Tm, DENV2 FL NS5 L511V: 35.5 °C
[3]
  EC50: 1.8 ± 0.2 µM
[4]; [16]
  CC50: > 50 µM
[4]; [17]
  CC50: > 100 µM
[4]; [18]
  CC50: > 50 µM
[5]
  EC50: 2.32 µM
[6]
  EC50: 41.7 µM
[7]
  EC50: 2.3 µM
[8]
  EC50: 3 µM
[9]
  EC50: 2.3 µM
[10]
  EC50: 1 to 5 µM
[11]
  Tm change compared to DMSO control, DENV2 FL NS5 E802D: 0 °C
  Protein melting temperature, Tm, DENV2 FL NS5 E802D: 36 °C
[12]; [19]
  EC50: 3.9 ± 0.62 µM
[13]
  Tm change compared to DMSO control, DENV4 FL NS5 L512V/Q802N: -1 °C
  Protein melting temperature, Tm, DENV4 FL NS5 L512V/Q802N: 35 °C
[14]
  Tm change compared to DMSO control, DENV4 FL NS5 L512V: 0 °C
  Protein melting temperature, Tm, DENV4 FL NS5 L512V: 36.5 °C
[15]
  EC50: 7.83 µM

From paper PMC4976923, “Potent Allosteric Dengue Virus NS5 Polymerase Inhibitors: Mechanism of Action and Resistance Profiling” (PLoS Pathogens, 2016)
